Data taken from patent publication US4342751A (priority 1981, dated 1982).
Where two headings read alike, the source gives them in different places. Numbered stars: 1 amine (or outer) side, 2 acyl side, 3 side chain; on linkers, the order of the positions; unused ones are H or OH. Square brackets hold non-standard residues; d marks the D form. Peptide text beside a SMILES is read from it. X1 = CCC(N[*:1])C(C)C(=O)O[C@H](C(=O)[*:2])[C@@H](C)CC; X2 = C[C@H](N[*:1])C(=O)C(C)(C)C(=O)[*:2]; NMeY = CN[C@@H](Cc1ccc(O)cc1)C(=O)O; NMeI = CC[C@H](C)[C@H](NC)C(=O)O; NMeV = CN[C@H](C(=O)O)C(C)C

Legend:
[1] = test system: Pythium ultimum Ridomil-sensitive strain; test: In vitro agar-dilution test, Ridomil-sensitive strain; assay type: cell-based; details: for Zone of Growth: control zone 39
[2] = test system: Phytophthora capsici Ridomil-Sensitive strain; test: as above; assay type: cell-based; details: for Zone of Growth: control zone 27
Aphanomyces euteiches = test: In vitro agar-dilution test; assay type: cell-based; set-up: Zone of Growth: unit not given beside the values; details: for Zone of Growth: control zone 29
Experimental: (§1) In these tests 100× solutions of majusculamide C in 95% aqueous ethanol were used. Majusculamide C solution (0.1 ml) and melted agar (9.9 ml) at 50° C. were mixed. An inoculum plug (6-mm diameter) was placed in the center of each plate; the radial growth of the colony was measured. Zone of growth was measured from the edge of the plug to the edge of the colony.

[3] = test system: Phytophthora capsici Ridomil-resistant strain; test: In vitro agar-dilution test, Ridomil-resistant strain; assay type: cell-based; details: for Zone of Growth: control zone 28
Phytophthora infestans [4] = assay type: cell-based; details: for Zone of Growth: control zone 12
[5] = test system: Pythium ultimum Ridomil-resistant strain; test: In vitro agar-dilution test, Ridomil-resistant strain; assay type: cell-based; details: for Zone of Growth: control zone 39
[6] = test system: Tomato leaves (C. V. Rutgers); details: for Phytotoxicity rating, tomato leaves: average of two replicates
Solubility in solvents = assay type: physicochemical
Pythium aphanidermatum = test: In vitro agar-dilution test; assay type: cell-based; set-up: Zone of Growth: unit not given here
Experimental: as §1

Rhizoctonia solani = test: In vitro agar-dilution test; assay type: cell-based; details: for Percent Inhibition / Zone of Growth: Table 5; for Zone of Growth: control zone 27
Experimental: as §1

Sclerotinia homoeocarpa = test: In vitro agar-dilution test; assay type: cell-based; details: for Percent Inhibition / Zone of Growth: Table 5; for Zone of Growth: control zone 23
Experimental: as §1

Phytophthora infestans [7] = assay type: in vivo; set-up: key to Disease Control rating, Tomato Late Blight: 1=severe disease; 5=no disease; details: for Disease Control rating, Tomato Late Blight: 1-5 scale, average of two replicates
[8] = swimmer's itch; Mynderse et al., Science 196, 538-540 (1977); cited from earlier work
[9] = calculated from Table 9 results
[10] = calculated from Table 7 results
[11] = 0.1 ppm, Table 7 experiment, control zone 32
[12] = 1.0 ppm, Table 7 experiment, control zone 32
[13] = calculated from Table 5 results

## CCC1NC(=O)[C@H](C)NC(=O)C(C)(C)C(=O)[C@H](C)NC(=O)[C@H](Cc2ccc(OC)cc2)N(C)C(=O)[C@H](C(C)C)N(C)C(=O)CNC(=O)[C@H]([C@@H](C)CC)N(C)C(=O)CNC(=O)[C@H]([C@@H](C)CC)OC(=O)C1C (some centres unmarked) [Majusculamide C, majusculamide C] (cyclo(A[X1]G[NMeI]G[NMeV][NMeY](Me)[X2]))
[1]; 0.1 ppm
  Percent Inhibition: 53%
  Zone of Growth: 18.5
[1]; 1 ppm
  Percent Inhibition: 88%
  Zone of Growth: 4.5
[1]; 10 ppm
  Percent Inhibition: 100%
  Zone of Growth: 0
[1]; [9]
  ED50: < 0.1 ppm
[2]; 0.1 ppm
  Percent Inhibition: 46%
  Zone of Growth: 14.5
[2]; 1 ppm
  Percent Inhibition: 74%
  Zone of Growth: 7
[2]; 10 ppm
  Percent Inhibition: 100%
  Zone of Growth: 0
[2]; [9]
  ED50: 0.45 ppm
Aphanomyces euteiches; 0.01 ppm
  Percent Inhibition: 7%
  Zone of Growth: 27
Aphanomyces euteiches; 0.1 ppm
  Percent Inhibition: 7%
  Zone of Growth: 27
Aphanomyces euteiches; 1.0 ppm
  Percent Inhibition: 29%
  Zone of Growth: 20.5
Aphanomyces euteiches; 10.0 ppm
  Percent Inhibition: 88%
  Zone of Growth: 3.5
Aphanomyces euteiches; [10]
  ED50: 2.1 ppm
[3]; 0.1 ppm
  Percent Inhibition: 48%
  Zone of Growth: 14.5
[3]; 1 ppm
  Percent Inhibition: 84%
  Zone of Growth: 4.5
[3]; 10 ppm
  Percent Inhibition: 98%
  Zone of Growth: 0.5
[3]; [9]
  ED50: 0.25 ppm
Phytophthora infestans [4]; 0.01 ppm
  Percent Inhibition: 17%
  Zone of Growth: 10
Phytophthora infestans [4]; 0.1 ppm
  Percent Inhibition: 42%
  Zone of Growth: 7
Phytophthora infestans [4]; 1.0 ppm
  Percent Inhibition: 46%
  Zone of Growth: 6.5
Phytophthora infestans [4]; 10.0 ppm
  Percent Inhibition: 100%
  Zone of Growth: 0
Phytophthora infestans [4]; [10]
  ED50: 1.07 ppm
[5]; 0.1 ppm
  Percent Inhibition: 60%
  Zone of Growth: 15.5
[5]; 1 ppm
  Percent Inhibition: 91%
  Zone of Growth: 3.5
[5]; 10 ppm
  Growth observation (footnote b): No growth on plug
  Percent Inhibition: 100%
  Zone of Growth: 0
[5]; [9]
  ED50: < 0.5 ppm
[6]; 6.25 ppm foliar spray
  Phytotoxicity rating, tomato leaves: 0
[6]; 25 ppm foliar spray
  Phytotoxicity rating, tomato leaves: 0
[6]; 100 ppm foliar spray
  Phytotoxicity rating, tomato leaves: 3.5
[6]; 400 and 100 ppm foliar spray
  Phytotoxicity observation, tomato leaves (footnote b): Evidence of chlorosis
[6]; 400 ppm foliar spray
  Phytotoxicity rating, tomato leaves: 4
Solubility in solvents; methanol, dichloromethane, and acetone
  Solubility in organic solvents: soluble
Solubility in solvents; water
  Solubility in water: not soluble
Pythium aphanidermatum; 0.01 ppm, Table 7 experiment
  Percent Inhibition: 6%
Pythium aphanidermatum; 0.01 ppm, Table 7 experiment, control zone 32
  Zone of Growth: 30
Pythium aphanidermatum; 0.1 ppm, Table 7 experiment
  Percent Inhibition: 62%
Pythium aphanidermatum; [11]
  Zone of Growth: 12
Pythium aphanidermatum; 1 ppm, Table 5 experiment
  Percent Inhibition: 97%
Pythium aphanidermatum; 1 ppm, Table 5 experiment, control zone 28
  Zone of Growth: 1
Pythium aphanidermatum; 1.0 ppm, Table 7 experiment
  Percent Inhibition: 95%
Pythium aphanidermatum; [12]
  Zone of Growth: 1.5
Pythium aphanidermatum; 10 ppm, Table 5 experiment
  Percent Inhibition: 100%
Pythium aphanidermatum; 10 ppm, Table 5 experiment, control zone 28
  Zone of Growth: 0
Pythium aphanidermatum; 10.0 ppm, Table 7 experiment
  Percent Inhibition: 100%
Pythium aphanidermatum; 10.0 ppm, Table 7 experiment, control zone 32
  Zone of Growth: 0
Pythium aphanidermatum; [13]
  ED50 (effective dose to achieve 50% inhibition): < 1 ppm
Pythium aphanidermatum; [10]
  ED50: 0.07 ppm
Rhizoctonia solani; 1 ppm
  Percent Inhibition: 30%
  Zone of Growth: 19
Rhizoctonia solani; 10 ppm
  Percent Inhibition: 63%
  Zone of Growth: 10
Rhizoctonia solani; [13]
  ED50 (effective dose to achieve 50% inhibition): 4 ppm
Rhizoctonia solani; suitable tests, not specified, Rhizoctonia damping-off
  Control of fungus: control
Sclerotinia homoeocarpa; 1 ppm
  Percent Inhibition: 26%
  Zone of Growth: 17
Sclerotinia homoeocarpa; 10 ppm
  Percent Inhibition: 30%
  Zone of Growth: 16
Sclerotinia homoeocarpa; [13]
  ED50 (effective dose to achieve 50% inhibition): > 10 ppm
Phytophthora infestans [7]; 6.25 ppm foliar spray
  Disease Control rating, Tomato Late Blight: 5
Phytophthora infestans [7]; 25 ppm foliar spray
  Disease Control rating, Tomato Late Blight: 5
Phytophthora infestans [7]; 100 ppm foliar spray
  Disease Control rating, Tomato Late Blight: 5
Phytophthora infestans [7]; 400 ppm foliar spray
  Disease Control rating, Tomato Late Blight: 5
Phytophthora infestans [7]; suitable tests, not specified, tomato late blight
  Control of fungus: control
Phytophthora infestans [7]; summary statement
  In vivo effectiveness against tomato late blight: effective

## COCC(=O)N(c1c(C)cccc1C)C(C)C(=O)OC (centres unmarked) [Ridomil (tech.), reference compound]
Aphanomyces euteiches; 0.1 ppm
  Percent Inhibition: 7%
  Zone of Growth: 27
Aphanomyces euteiches; 1.0 ppm
  Percent Inhibition: 3%
  Zone of Growth: 28
Phytophthora infestans [4]; 0.1 ppm
  Percent Inhibition: 50%
  Zone of Growth: 6
Phytophthora infestans [4]; 1.0 ppm
  Percent Inhibition: 83%
  Zone of Growth: 2
Pythium aphanidermatum; 0.1 ppm, Table 7 experiment
  Percent Inhibition: 34%
Pythium aphanidermatum; [11]
  Zone of Growth: 21
Pythium aphanidermatum; 1.0 ppm, Table 7 experiment
  Percent Inhibition: 94%
Pythium aphanidermatum; [12]
  Zone of Growth: 2

## CO[C@@H](CC[C@H](C)[C@H]1O[C@@]23C[C@H](OC(=O)C[C@H]([C@@H](C)O)OC(=O)C[C@](O)(O2)[C@H](C)CC3(C)C)[C@@H]1C)c1cccc(O)c1 [debromoaplysiatoxin]
[8]
  Contact dermatitis: causes a severe contact dermatitis
